The source of these data is patent US20230148070A1, “AMINO ACID DERIVATIVES AND THEIR USE AS FLAVOR MODIFIERS” (Firmenich SA, priority 2020, published 2023).

Experiment [1] is described as follows: Sensory Testing 1: Savory Model (trained panel, umami and saltiness). The conditions noted are these: 10 ppm; panel of 20-22 trained panelists; score on scale -5 (strong masking) to 5 (strong enhancing), 0 = reference water solution with 0.25% NaCl and 0.05% MSG. The class given is in vivo. The procedure:
Each of Compound 101, Compound 102, Compound 103, Compound 104, Compound 105, Compound 106, Compound 107, Compound 108 and Compound 109 was tested for taste properties, particularly umami and saltiness. A panel of 20-22 trained panelists evaluated the samples of each test compound at 10 ppm for umami taste properties and saltiness taste properties, and scored the solutions on a scale ranging from −5 to 5 (with −5 denoting a strong masking effect, and 5 denoting a strong enhancing effect, and 0 representing the intensity of a reference water solution containing 0.25% sodium chloride (NaCl) and 0.05% monosodium glutamate (MSG), respectively).

Experiment [2] is described as follows: Sensory Testing 2: Chicken Soup (expert panel, salt, umami, meaty, kokumi). Type of experiment: in vivo. The conditions noted are these: 10 ppm, panel of 8 experts, score on scale -5 to 5, 0 = reference water solution with 1.26% Chicken base, 0.7% NaCl, 0.04% MSG; for Mouth-coating / Round / Thick: kokumi. The procedure:
Each of Compound 103, Compound 104 and Compound 109 was tested for flavor, taste and mouthfeel properties, particularly kokumi. A panel of 8 experts evaluated the samples of each test compound at 10 ppm for salt, umami, meaty, and kokumi (mouthcoating, round and thick) properties, and scored the solutions on a scale ranging from −5 to 5 (with −5 denoting a strong masking effect, and 5 denoting a strong enhancing effect, and 0 representing the intensity of a reference water solution containing 1.26% Chicken base, 0.7% NaCl, and 0.04% MSG, respectively).

`CC(C)NC(=O)CCC(N)C(=O)O` (stereo not drawn) [Compound 101]: in experiment [1], the Saltiness came to 0.79 and the Umami is given as 0.06.

As for `NC(CCC(=O)NCCO)C(=O)O` (stereo not drawn) [Compound 102], in experiment [1], the Saltiness was determined as 0.44 and the Umami came out at 0.46.

On to `NC(CCC(=O)NCCCC(=O)O)C(=O)O` (stereo not drawn) [Compound 103], for which, in experiment [1], the Saltiness was 0.64 and the Umami is on record as 0.73. Besides, in experiment [2], the Meaty was determined as 0.67, the Saltiness came out at 0.67, the Umami was 0.83 and the Mouth-coating is 1.08. Further, in experiment [2], the Round is given as 0.92 and the Thick was found to be 0.92.

Turning to `C[C@H](CNC(=O)CC[C@H](N)C(=O)O)C(=O)O` [Compound 104], in experiment [1], the Saltiness was found to be 0.96 and the Umami was 0.32. For the same compound, in experiment [2], the Meaty was determined as 0.42, the Saltiness is listed as 0.75, the Umami stood at 0.75 and the Mouth-coating amounted to 0.75. Further, in experiment [2], the Round came out at 0.50 and the Thick is recorded as 0.58.

On to `COc1ccc(CNC(=O)CCC(N)C(=O)O)cc1` (stereo not drawn) [Compound 105], for which, in experiment [1], the Saltiness is given as 0.38 and the Umami was determined as 0.76.

As for `NC(CCC(=O)NCCc1ccc(O)cc1)C(=O)O` (stereo not drawn) [Compound 106], in experiment [1], the Saltiness worked out at 0.33 and the Umami amounted to 0.51.

Take `N=C(N)NCCCC(NC(=O)CCC(=O)O)C(=O)O` (stereo not drawn) [Compound 107]: in experiment [1], the Saltiness is 0.61 and the Umami amounted to 0.66.

Consider `N=C(N)NCCCC(NC(=O)c1ccc(O)cc1)C(=O)O` (stereo not drawn) [Compound 108], for which, in experiment [1], the Saltiness is 0.49 and the Umami is on record as 0.47.

For the compound `C[C@@H](CNC(=O)CC[C@H](N)C(=O)O)C(=O)O` [Compound 109], in experiment [1], the Saltiness was 0.58 and the Umami is given as 0.50. In addition, in experiment [2], the Meaty amounted to 0, the Saltiness came out at 0.92, the Umami stood at 0.58 and the Mouth-coating is 0.83. In experiment [2], the Round was 0.58 and the Thick is recorded as 0.83.
